Among the data in US9266871B2, “Trifluoromethyl-substituted fused pyrimidines and their use” (BAYER PHARMA AKTIENGESELLSCHAFT, priority 2013, dated 2016) are IC50 values, retold here.

One experiment addresses T1, bovine PDE 6 (Bos taurus, UniProt P11541+P23439).
T1 construct: from tissue; host or cells: bovine retina, photoreceptor outer segments (ROS)
T1 sequence (P11541 2-856 limits assumed): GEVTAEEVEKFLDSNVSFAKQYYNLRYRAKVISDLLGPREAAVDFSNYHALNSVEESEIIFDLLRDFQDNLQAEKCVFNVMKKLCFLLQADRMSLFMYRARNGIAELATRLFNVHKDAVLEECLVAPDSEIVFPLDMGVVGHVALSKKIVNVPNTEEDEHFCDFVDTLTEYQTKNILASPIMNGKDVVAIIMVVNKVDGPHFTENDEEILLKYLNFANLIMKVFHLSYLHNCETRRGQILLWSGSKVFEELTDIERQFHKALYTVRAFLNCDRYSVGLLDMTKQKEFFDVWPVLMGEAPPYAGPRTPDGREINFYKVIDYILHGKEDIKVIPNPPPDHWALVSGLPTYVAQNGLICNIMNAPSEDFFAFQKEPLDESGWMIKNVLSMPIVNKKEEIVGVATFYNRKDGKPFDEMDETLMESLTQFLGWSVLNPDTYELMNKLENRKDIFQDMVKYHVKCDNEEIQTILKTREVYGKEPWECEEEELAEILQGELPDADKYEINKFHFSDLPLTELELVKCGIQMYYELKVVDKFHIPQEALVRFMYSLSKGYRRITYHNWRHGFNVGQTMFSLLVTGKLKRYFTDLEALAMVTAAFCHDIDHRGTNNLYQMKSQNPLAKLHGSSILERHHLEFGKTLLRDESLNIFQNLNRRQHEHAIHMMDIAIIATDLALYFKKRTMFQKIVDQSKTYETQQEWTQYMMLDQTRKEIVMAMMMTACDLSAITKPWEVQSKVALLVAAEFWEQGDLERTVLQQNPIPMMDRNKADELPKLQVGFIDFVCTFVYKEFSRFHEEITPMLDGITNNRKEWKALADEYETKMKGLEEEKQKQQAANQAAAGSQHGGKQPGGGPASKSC
T1 sequence (P23439 2-850 limits assumed): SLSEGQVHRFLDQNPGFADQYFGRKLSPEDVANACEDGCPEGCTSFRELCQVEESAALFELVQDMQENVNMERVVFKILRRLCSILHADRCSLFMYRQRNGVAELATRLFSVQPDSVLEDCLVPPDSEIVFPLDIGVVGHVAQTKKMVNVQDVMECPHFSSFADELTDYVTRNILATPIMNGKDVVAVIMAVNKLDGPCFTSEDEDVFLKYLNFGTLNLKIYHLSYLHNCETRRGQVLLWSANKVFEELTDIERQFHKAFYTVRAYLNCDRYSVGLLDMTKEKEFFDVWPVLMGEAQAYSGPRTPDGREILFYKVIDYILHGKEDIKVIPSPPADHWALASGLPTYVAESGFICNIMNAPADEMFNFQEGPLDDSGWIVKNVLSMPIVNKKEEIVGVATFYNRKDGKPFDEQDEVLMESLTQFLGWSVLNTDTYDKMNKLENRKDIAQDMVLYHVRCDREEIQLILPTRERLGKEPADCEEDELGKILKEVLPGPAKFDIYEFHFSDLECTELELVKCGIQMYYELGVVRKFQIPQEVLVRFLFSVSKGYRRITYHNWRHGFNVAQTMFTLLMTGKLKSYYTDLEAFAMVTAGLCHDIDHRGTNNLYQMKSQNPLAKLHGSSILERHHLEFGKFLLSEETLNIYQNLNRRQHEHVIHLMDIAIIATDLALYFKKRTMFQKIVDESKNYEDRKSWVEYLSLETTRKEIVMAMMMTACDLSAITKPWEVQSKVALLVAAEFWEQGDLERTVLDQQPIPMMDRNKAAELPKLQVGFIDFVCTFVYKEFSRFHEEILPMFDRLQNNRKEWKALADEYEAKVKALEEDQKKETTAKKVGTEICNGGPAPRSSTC
Nature of the experiment: Inhibition of bovine phosphodiesterase 6 (PDE 6), 3H-cGMP SPA. The experiment is classed as biochemical. The conditions noted are these: bovine PDE 6 inhibition. Here is the method:
B-6. Inhibition of Bovine Phosphodiesterase 6 (PDE 6)
PDE 6 is purified from external photoreceptor segments of bovine retina (ROS), activated by mild trypsination and purified further by ion exchange chromatography using a Mono Q column. Fractions having PDE 6 activity are combined (PDE 6 preparation) and stored at −80° (I. Saenz de Tejada et al., International Journal of Impotence Research 2001, 13, 282-290). The in vitro effect of test substances on bovine PDE 6 is determined using the commercially available 3H-cGMP Scintillation Proximity Assay (SPA) from Perkin Elmer. The reaction ([…], 37° C.) comprises serial dilution series of the test substances in DMSO and PDE 6 preparation (typical dilution 1:100,000), [8^−3H]guanosine 3′,5′-cyclic phosphate (0.25 μCi/mL; Perkin Elmer) and unlabelled cGMP (10 μM) in assay buffer (50 mM Tris/HCl pH 7.5; 140 mM NaCl; 8.3 mM MgCl2; 1.7 mM EDTA; 0.02% BSA). IC50 values are determined by plotting the substance concentration against the percent PDE 6 inhibition determined (Wunder et al. Molecular Pharmacology 2005, 68, 1775-1781).

The subject of the next experiment is aorta rings. Nature of the experiment: Vasorelaxant effect in vitro (phenylephrine-contracted aorta rings). The following applies: Oryctolagus cuniculus; relaxation of phenylephrine-induced contraction, rabbit aorta rings. Here is the method: B-1. Vasorelaxant Effect In Vitro
Rabbits are stunned by a blow to the neck and exsanguinated. The aorta is removed, freed from adhering tissue and divided into rings of a width of 1.5 mm. The rings are placed individually under an initial tension in 5 ml organ baths with Krebs-Henseleit solution which is at 37° C., is gassed with carbogen and has the following composition (in each case mM): sodium chloride: 119; potassium chloride: 4.8; calcium chloride dihydrate: 1; magnesium sulphate heptahydrate: 1.4; potassium dihydrogenphosphate: 1.2; sodium bicarbonate: 25; glucose: 10. The contractile force is determined with Statham UC2 cells, amplified and digitalized using A/D transducers (DAS-1802 HC, Keithley Instruments Munich), and recorded in parallel on linear recorders. To produce a contraction, phenylephrine is added to the bath cumulatively in increasing concentration. After several control cycles, the substance to be investigated is added in each further run in increasing dosage in each case, and the height of the contraction achieved is compared with the height of the contraction reached in the last preceding run. This is used to calculate the concentration needed to reduce the magnitude of the control value by 50% (IC50 value). The standard administration volume is 5 μl; the DMSO content in the bath solution corresponds to 0.1%.

By IC50 is commonly meant the point on the concentration scale where inhibition reaches its midpoint. A lower IC50 goes with greater potency in that assay.

`C[C@@]1(C(F)(F)F)C(=O)Nc2nc(-c3nn(Cc4ncccc4F)c4ncc(F)cc34)nc(NCCC(F)(F)F)c21` (single isomer, unassigned) [Example 1-1]: the IC50 against bovine PDE 6 is 220 nM; in the experiment on aorta rings, 265 nM.

Regarding `C[C@]1(C(F)(F)F)C(=O)Nc2nc(-c3nn(Cc4ncccc4F)c4ncc(F)cc34)nc(NCCC(F)(F)F)c21` (single isomer, unassigned) [Example 1-2], the IC50 at bovine PDE 6 is 1400 nM; in the experiment on aorta rings, 237 nM.
